Assay results reported in US9155760B2, “Method of prophylaxis of bacterial vaginosis” (STARPHARMA PTY LIMITED, priority 2011, dated 2015).
Converted amounts (≈) assume the structure as drawn. Read-outs that look alike come from different tables or passages of the source.

Columns and labels:
Mobiluncus. curtisii = assay: Agar dilution MIC assay (anaerobes); format: cell-based; conditions: Micromyx Number 4145, 35° C., 48 hours, anaerobic
Mobiluncus mulieris = assay: Agar dilution MIC assay (anaerobes); format: cell-based; conditions: Micromyx Number 4146, 35° C., 48 hours, anaerobic
[1] = tested on: Lactobacillus acidophilus; assay: Agar dilution MIC assay (anaerobes); format: cell-based; conditions: Micromyx Number 0681, 35° C., 48 hours, anaerobic
Lactobacillus casei = assay: Agar dilution MIC assay (anaerobes); format: cell-based; conditions: Micromyx Number 1722, 35° C., 48 hours, anaerobic
Lactobacillus plantarum = assay: Agar dilution MIC assay (anaerobes); format: cell-based; conditions: Micromyx Number 2791, 35° C., 48 hours, anaerobic
Lactobacillus crispatus = assay: Agar dilution MIC assay (anaerobes); format: cell-based; conditions: Micromyx Number 4147, 35° C., 48 hours, anaerobic
Lactobacillus gasseri = assay: Agar dilution MIC assay (anaerobes); format: cell-based; conditions: Micromyx Number 4148, 35° C., 48 hours, anaerobic
Lactobacillus jensenii = assay: Agar dilution MIC assay (anaerobes); format: cell-based; conditions: Micromyx Number 4149, 35° C., 48 hours, anaerobic
[2] = tested on: Bacteroides fragilis 3374; assay: Agar dilution MIC assay (anaerobes); format: cell-based; conditions: Micromyx Number 3374, 35° C., 48 hours, anaerobic
[3] = tested on: Bacteroides fragilis 0123 (ATCC 25285); assay: Agar dilution MIC assay (anaerobes), quality control organism; format: cell-based; conditions: 48 hours, anaerobic
Bacteroides ovatus 3503 = assay: Agar dilution MIC assay (anaerobes); format: cell-based; conditions: Micromyx Number 3503, 35° C., 48 hours, anaerobic
B. ovatus 3508 = assay: Agar dilution MIC assay (anaerobes); format: cell-based, Bacteroides ovatus; conditions: Micromyx Number 3508, 35° C., 48 hours, anaerobic
Bacteroides ureolyticus = assay: Agar dilution MIC assay (anaerobes); format: cell-based; conditions: Micromyx Number 4150, 35° C., 48 hours, anaerobic
Fusobacterium nucleatum = assay: Agar dilution MIC assay (anaerobes); format: cell-based; conditions: Micromyx Number 1269, 35° C., 48 hours, anaerobic
Anaerococcus prevotii = assay: Agar dilution MIC assay (anaerobes); format: cell-based; conditions: Micromyx Number 4151, 35° C., 48 hours, anaerobic
Anaerococcus tetradius = assay: Agar dilution MIC assay (anaerobes); format: cell-based; conditions: Micromyx Number 4152, 35° C., 48 hours, anaerobic
[4] = tested on: Peptostreptococcus anaerobius; assay: Agar dilution MIC assay (anaerobes); format: cell-based; conditions: Micromyx Number 3526, 35° C., 48 hours, anaerobic
Prevotella bivia = assay: Agar dilution MIC assay (anaerobes); format: cell-based; conditions: Micromyx Number 3447, 35° C., 48 hours, anaerobic
Prevotella intermedia = assay: Agar dilution MIC assay (anaerobes); format: cell-based; conditions: Micromyx Number 3002, 35° C., 48 hours, anaerobic
[5] = tested on: Prevotella melaninogenica; assay: Agar dilution MIC assay (anaerobes); format: cell-based; conditions: Micromyx Number 3005, 35° C., 48 hours, anaerobic
Porphyromonas levii = assay: Agar dilution MIC assay (anaerobes); format: cell-based; conditions: Micromyx Number 3003, 35° C., 48 hours, anaerobic
[6] = tested on: Porphyromonas asaccharolytica; assay: Agar dilution MIC assay (anaerobes); format: cell-based; conditions: Micromyx Number 3004, 35° C., 48 hours, anaerobic
Gardnerella vaginalis = assay: Agar dilution MIC assay (anaerobes); format: cell-based; conditions: Micromyx Number 4153, 35° C., 48 hours, anaerobic
[7] = Bacteroides ovatus, read-out: MIC

C[C@@H](O)[C@H]1C(=O)N2C(C(=O)O)=C(SCCN=CN)C[C@H]12 [Imipenem, reference compound]
MIC (Mobiluncus. curtisii; Mobiluncus curtisii, read-out: MIC): ≤ 3e-05 mg/mL
MIC (Mobiluncus mulieris; Mobiluncus mulieris, read-out: MIC): ≤ 3e-05 mg/mL
MIC ([1]; Lactobacillus acidophilus, read-out: MIC): 0.12 µg/mL (≈ 0.401 µM)
MIC (Lactobacillus casei; Lacticaseibacillus casei, read-out: MIC): 0.5 µg/mL (≈ 1.67 µM)
MIC (Lactobacillus plantarum; Lactiplantibacillus plantarum, read-out: MIC): 2 µg/mL (≈ 6.68 µM)
MIC (Lactobacillus crispatus; Lactobacillus crispatus, read-out: MIC): 0.12 µg/mL (≈ 0.401 µM)
MIC (Lactobacillus gasseri; Lactobacillus gasseri, read-out: MIC): 0.25 µg/mL (≈ 0.835 µM)
MIC (Lactobacillus jensenii; Lactobacillus jensenii, read-out: MIC): 0.25 µg/mL (≈ 0.835 µM)
MIC ([2]; Bacteroides fragilis, read-out: MIC): 2 µg/mL (≈ 6.68 µM)
MIC ([3]; Bacteroides fragilis, ATCC25285, Micromyx Number 0123, 35° C., read-out: MIC): 0.12 µg/mL (≈ 0.401 µM)
MIC (Bacteroides ovatus 3503; [7]): 0.25 µg/mL (≈ 0.835 µM)
MIC (B. ovatus 3508; [7]): ≤ 3e-05 mg/mL
MIC (Bacteroides ureolyticus; Campylobacter ureolyticus, read-out: MIC): 0.25 µg/mL (≈ 0.835 µM)
MIC (Fusobacterium nucleatum; Fusobacterium nucleatum, read-out: MIC): ≤ 3e-05 mg/mL
MIC (Anaerococcus prevotii; Anaerococcus prevotii, read-out: MIC): 0.06 µg/mL (≈ 0.2 µM)
MIC (Anaerococcus tetradius; Anaerococcus tetradius, read-out: MIC): ≤ 3e-05 mg/mL
MIC ([4]; Peptostreptococcus anaerobius, read-out: MIC): ≤ 3e-05 mg/mL
MIC (Prevotella bivia; Prevotella bivia, read-out: MIC): ≤ 3e-05 mg/mL
MIC (Prevotella intermedia; Prevotella intermedia, read-out: MIC): ≤ 3e-05 mg/mL
MIC ([5]; Prevotella melaninogenica, read-out: MIC): ≤ 3e-05 mg/mL
MIC (Porphyromonas levii; Porphyromonas levii, read-out: MIC): 0.06 µg/mL (≈ 0.2 µM)
MIC ([6]; Porphyromonas asaccharolytica, read-out: MIC): ≤ 3e-05 mg/mL
MIC (Gardnerella vaginalis; Gardnerella vaginalis, read-out: MIC): 0.12 µg/mL (≈ 0.401 µM)

CC(=O)COc1cc(S(=O)(=O)O)cc2cc(S(=O)(=O)O)ccc12 [SPL7013]
MIC (Mobiluncus. curtisii): >30 mg/mL
MIC (Mobiluncus mulieris): >30 mg/mL
MIC [1]: >30000 µg/mL
MIC (Lactobacillus casei): >30000 µg/mL
MIC (Lactobacillus plantarum): >30000 µg/mL
MIC (Lactobacillus crispatus): 10000 µg/mL (≈ 27700 µM)
MIC (Lactobacillus gasseri): >30000 µg/mL
MIC (Lactobacillus jensenii): >30000 µg/mL
MIC [2]: >30000 µg/mL
MIC ([3]; Micromyx Number 0123, 35° C.): >30000 µg/mL
MIC (Bacteroides ovatus 3503): >30000 µg/mL
MIC (B. ovatus 3508): 30 mg/mL (≈ 83200 µM)
MIC (Bacteroides ureolyticus): >30000 µg/mL
MIC (Fusobacterium nucleatum): >30 mg/mL
MIC (Anaerococcus prevotii): >30000 µg/mL
MIC (Anaerococcus tetradius): >30 mg/mL
MIC [4]: >30 mg/mL
MIC (Prevotella bivia): 30 mg/mL (≈ 83200 µM)
MIC (Prevotella intermedia): >30 mg/mL
MIC [5]: >30 mg/mL
MIC (Porphyromonas levii): >30000 µg/mL
MIC [6]: >30 mg/mL
MIC (Gardnerella vaginalis): 5000 µg/mL (≈ 13900 µM)
